Common to all, as to format: in vivo, human
The test system of assay [1] is IL-4/13 signature genes in bronchial airway epithelium. The experiment in a line: Microarray analysis of bronchial epithelial brushings at baseline and after one week of ICS treatment. The text has this: (A) Periostin expression; (B) PRR4 expression; (C) RUNX2 expression.
We studied biological samples stored in the Airway Tissue Bank at the University of California, San Francisco (UCSF) that had been collected during bronchoscopy performed for research purposes in healthy and asthmatic volunteers. Research bronchoscopy had included collection of epithelial brushings, bronchoalveolar lavage (BAL) and bronchial biopsies using specific methods previously described. BAL cell counts and differentials had been performed and databased, and macrophages had been sorted from BAL fluid using flow cytometry. Four to six bronchial biopsies had been obtained from 2nd-through 5th-order carinae (contralateral to the brushing site), formalin-fixed, and then paraffin-embedded in isotropic uniform random orientation to enable quantitative measures of inflammation and remodeling using methods of design-based stereology. An additional 2 bronchial biopsies had been homogenized and processed for RNA using the Qiagen RNeasy minikit (Qiagen Inc., Valencia, Calif.). RNA extracted from epithelial brushings, homogenates of bronchial biopsies, and lavage macrophages had been quality assured and aliquoted for future microrray- and PCR-based gene profiling. All research bronchoscopy studies had been approved by the UCSF Committee on Human Research (CHR), written informed consent had been obtained from all subjects, and all studies had been performed in accordance with the principles expressed in the Declaration of Helsinki The Airway Tissue Bank procedures were also reviewed and approved by UCSF's CHR. Samples of epithelial brushings and macrophages from this tissue bank have been used in previously reported studies. Most recently, microarray analyses of differentially expressed genes in epithelial brushings in asthmatic subjects have been reported by us.
Thirty-two of the subjects with asthma had also been enrolled in a double-blind randomized controlled clinical trial of inhaled fluticasone (500 μg, twice daily, N=19) or matched placebo (N=13) (ClinicalTrials.gov Identifier: NCT00187499). The trial was designed to determine the effects of inhaled steroid (fluticasone) on airway gene expression and to relate gene expression changes to improvements in lung function. The asthma subjects in the clinical trial had undergone baseline bronchoscopy and had been randomized to receive study medication before undergoing repeat bronchoscopy one week later after starting study drug. Asthma subjects continued study medication for a total of 8 weeks. Healthy control subjects and smokers were enrolled in one of three cross-sectional studies, which comprised two visits each, the first for characterization and the second for bronchoscopy 1 week later. Thirty-five subjects had adequate baseline bronchoscopy, and 32 had RNA available from epithelial brushings at both bronchoscopies. Lung function was measured (by spirometry) after 4 weeks and 8 weeks on study medication, and a final spirometry was completed after a one week run-out. […]
Microarray data from mild-moderate non-smoking asthma patients and healthy non-smoking subjects were obtained from a previous study as described. […] Microarray data was analysed in the present study to determine whether genes were differentially regulated within the asthmatic group. Also, the microarray data was analyzed to determine whether other genes were co-regulated with top asthma-related, IL-13 induced genes. […]

The next assay relates to serum IgE. The experiment in a line: Serum IgE (clinical laboratory or ELISA). The conditions noted are these: asthmatics on inhaled corticosteroids (N = 51) vs No ICS (N = 49). On the procedure: (§1) Serum IgE was measured by UCSF clinical laboratories or by ELISA using a human serum IgE ELISA kit according to manufacturer's instructions (Bethyl Laboratories). Serum CEA was measured using a human serum CEA ELISA kit according to manufacturer's instructions (Alpco Diagnostics). We developed an electrochemiluminescent assay (ECLA) to measure serum periostin using anti-periostin antibodies (R&D systems). Briefly, monoclonal anti-periostin was coated onto plates at 1.5 micrograms/ml in sodium carbonate buffer, pH 9.6 overnight at 4° C. Plates were blocked in assay buffer (1×PBS pH 7.4, 0.35 M NaCl, 0.5% BSA, 0.05% Tween 20, 0.25% CHAPS, 5 mM EDTA, 15PPM Proclin)+3% BSA for 2 hours at room temperature, then washed 4× with TBST (Tris-buffered saline+0.1% Tween-20). Serum was diluted 1:5 in assay buffer and incubated with agitation at room temperature for 2 h, then washed 4× with TBST. Recombinant periostin (R&D Systems) was used to establish a standard range. […] Reading buffer (Meso Scale Devices) was added and electrochemiluminescence was read (Meso Scale Devices). […] In addition, we measured IgE and YKL-40, a serum marker previously described to be elevated in some asthmatics, in these same sera. […]

The subject of the next assay is serum periostin. The experiment in a line: Serum periostin electrochemiluminescent assay (ECLA). Particulars: asthmatics on inhaled corticosteroids (N = 51) vs No ICS (N = 49). How it is done: as §1
Setting [2] is: 19 subjects, one week of ICS treatment, vast majority of genes.
[3] abbreviates: individual subjects after one week of ICS treatment.

As for `CCC(=O)O[C@]1(C(=O)SCF)[C@H](C)C[C@H]2[C@@H]3C[C@H](F)C4=CC(=O)C=C[C@]4(C)[C@@]3(F)[C@@H](O)C[C@@]21C` [fluticasone, fluticasone propionate], in assay [1] (setting [2]), the “Expression of IL-4/13 signature genes (Table 2) in asthmatic bronchial airway epithelium” value is “significantly downregulated” and the “Expression of IL-13 signature genes (Table 9) in asthmatic bronchial airway epithelium” value is “significantly downregulated”. In addition, in assay [1] (setting [3]), the “PRR4 expression in bronchial epithelial brushings” value is “not substantially downregulated” and the “RUNX2 expression in bronchial epithelial brushings” value is “not substantially downregulated”. For the same compound, the “Hierarchical clustering by periostin, CLCA1 and serpinB2 expression in bronchial epithelium” value in assay [1] (subjects with IL-13 high asthma at baseline, after one week of fluticasone treatment) is recorded as “clustered with subjects who were IL-13 low at baseline”. Further, the “IgE, level of serum biomarker, median (range)” value with serum IgE was 132 (1-2098) IU/ml. The “Periostin, level of serum biomarker, median (range)” value in the assay with serum periostin is recorded as 48 (0-117) ng/ml.

(Values after patent publication US20110123530A1, “COMPOSITIONS AND METHODS FOR TREATING AND DIAGNOSING ASTHMA” (priority 2008, published 2011).)
